Inhibition and hKv1.3 % inh. data for 26 compounds are collected here from patent US8258138B2, “Potassium channel blockers” (Xention Limited, priority 2008, dated 2012).

Molecules are shown by their SMILES.

This test has as its target T1, human Kv1.3 (Homo sapiens, UniProt P22001).
T1 construct: expressed in transfected cells; host or cells: stably transfected cells grown in medium for CHO cells
The test is described as follows: Kv1.3 Autopatch electrophysiology (whole cell patch-clamp, inhibition of charge movement). The class given is cell-based. The conditions noted are these: compound at 1 μM, cells stably transfected with human Kv1.3, room temperature, total charge during step to +30 mV relative to control; for inhibition at 1 µM: read-out: hKv1.3 % inh. As to the method:
Kv1.3 Autopatch Electrophysiology Method
Compounds were tested on these cells using the AutoPatch technology in whole cell mode.
The external bathing solution contained (in mM): 150 NaCl, 10 KCl, 1 MgCl2, 3 CaCl2, 10 HEPES, pH 7.4 with NaOH. Patch pipettes were filled with an electrode solution of composition (in mM): 100 K-Gluconate, 20 KCl, 1 MgCl2, 1 CaCl2, 10 HEPES, 11 EGTA, 5 ATP-Na2, 2 Glutathione pH 7.2 with KOH.
Compounds were dissolved in DMSO (100%) and made up in the external bather at a concentration of 1 μM immediately prior to use. All experiments were conducted at room temperature.
A cell suspension (10 ml), with a density of 6×10^6 cells, was aliquoted into a 15 ml centrifuge tube and stored at 4° C. before use. Prior to use a tube was taken and centrifuged at 1000 rpm for 4 mins at room temperature. The supernatant was then discarded, leaving a cell pellet at the bottom of the tube. The pellet was then resuspended using 1 ml of cold (4° C.), filtered (0.22 μm), 0.05% BSA/bather solution (0.05 g BSA/100 ml bather). The bottom of the tube was manually agitated followed by gentle tituration. The cell suspension was then placed in the AutoPatch™ temperature controlled cell-hotel at 14° C. and regularly titurated.
A length of Teflon capillary tubing was dipped into the cell suspension solution, and a column of fluid was taken up by negative pressure. The column of fluid was in electrically connectivity with a Ag/AgCl reference electrode. Borosilicate glass patch pipettes (from 1.5 mm OD, thin-walled filamented, GC150-TF capillary glass, Harvard) were pulled using a DMZ pipette puller (Zeitz Instruments), and were back-filled using the internal pipette solution, being careful that no bubbles remained at the tip or in the body of the pipette. Patch pipettes typically had resistances of 2.5-3.5 MΩ. Once filled, the pipette tip and a proportion of the shaft (˜15 mm) were dipped into Sigmacote (Sigma). The recording pipettes were placed in a multiwell array and mounted on the AutoPatch™ machine. Automated patch-clamping and drug-application was initiated by the operator, but thereafter AutoPatch.exe continued the experiment providing that pre-set conditions and criteria were satisfied.
Whole cell patch-clamp recordings were made using the AutoPatch™ rig, which incorporated an EPC9 or EPC10 amplifier (HEKA, Germany) under control of Pulse software (v8.54 or v8.76, HEKA, Germany), a cell applicator, automated drug application system (DAS), valve controller (VF1) and a suction device all at room temperature. This equipment was completely under the control of AutoPatch.exe and operator intervention was only made when there was a requirement to refill the bather reservoirs or to prevent the loss of a cell due to a technical error.
Cells were continuously perfused with external solution at a flow rate of ˜2 ml/minute.
Electrophysiology voltage-step protocols and analysis of data was performed as follows. Data were sampled at 5 kHz, and filtered with a −3 dB bandwidth of 2.5 kHz. Cells were held at a voltage of −80 mV. Currents were evoked by a voltage step to +30 mV for 500 ms in duration applied every 15 s. Online analysis of the hKv1.3 current during the application of compounds was performed by the Pulse (v8.54 or v8.76, HEKA, Germany), Excel (Microsoft, USA) and AutoPatch™ software, with the total charge measured during the whole of voltage step. Inhibition of charge movement in the presence of drug was calculated relative to control.
Background: Patch clamp records ionic current or voltage across a cell membrane.

T1 sequence (P22001 whole entry): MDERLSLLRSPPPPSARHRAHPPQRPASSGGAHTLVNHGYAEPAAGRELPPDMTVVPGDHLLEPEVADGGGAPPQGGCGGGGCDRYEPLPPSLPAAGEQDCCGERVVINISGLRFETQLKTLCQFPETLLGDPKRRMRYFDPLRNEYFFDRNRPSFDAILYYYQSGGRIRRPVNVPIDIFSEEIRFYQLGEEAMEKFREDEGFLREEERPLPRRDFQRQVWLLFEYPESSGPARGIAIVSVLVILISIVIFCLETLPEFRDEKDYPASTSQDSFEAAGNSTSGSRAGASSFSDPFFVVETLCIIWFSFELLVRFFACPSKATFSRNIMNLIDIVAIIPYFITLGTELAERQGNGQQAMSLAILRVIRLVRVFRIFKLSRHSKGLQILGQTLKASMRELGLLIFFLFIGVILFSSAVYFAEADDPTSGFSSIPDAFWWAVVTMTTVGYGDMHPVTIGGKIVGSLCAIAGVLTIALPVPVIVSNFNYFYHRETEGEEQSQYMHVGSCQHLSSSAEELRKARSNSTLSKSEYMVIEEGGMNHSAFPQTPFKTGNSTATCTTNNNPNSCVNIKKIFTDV

For the compound `N#Cc1ccccc1CN(c1ccc(C(=O)N2CCN(c3ccccc3)CC2)cc1)S(=O)(=O)c1ccccc1` [Example 38, N-(2-Cyano-benzyl)-N-[4-(4-phenyl-piperazine-1-carbonyl)-phenyl]-benzenesulfonamide], the inhibition at 1 µM was 50%. For `O=C(c1ccc(N(Cc2cccc(OC(F)(F)F)c2)S(=O)(=O)c2ccccc2)cc1)N1CCN(c2ccccc2)CC1` [Example 37, N-[4-(4-Phenyl-piperazine-1-carbonyl)-phenyl]-N-(3-trifluoromethoxy-benzyl)-benzenesulfonamide], the inhibition at 1 µM stood at 46%. On to `CN(C)S(=O)(=O)N(Cc1ccccc1)c1ccc(C(=O)N2CCOC(c3ccccc3)C2)cc1` (centres unmarked) [Example 6, N-Benzyl-N-[4-(2-phenyl-morpholine-4-carbonyl)-phenyl]-N′,N′-dimethylsulfamide], for which the inhibition at 1 µM is 60%. `Cn1ccc(S(=O)(=O)N(Cc2ccccc2)c2ccc(C(=O)N3CCNC(c4ccccc4)C3)cc2)n1` (centres unmarked) [Example 88, 1-Methyl-1H-pyrazole-3-sulfonic acid benzyl-[4-(3-phenyl-piperazine-1-carbonyl)-phenyl]-amide]: the inhibition at 1 µM turned out to be 46%. Turning to `CC1CCCN(C(=O)c2ccc(N(Cc3ccc(F)cc3)S(=O)(=O)c3cn(C)cn3)cc2)C1` (centres unmarked) [Example 94, 1-Methyl-1H-imidazole-4-sulfonic acid (4-fluoro-benzyl)-[4-(3-methyl-piperidine-1-carbonyl)-phenyl]-amide], the inhibition at 1 µM amounted to 52%. Take `Cc1ccc(C2CCCN(C(=O)c3ccc(N(Cc4ccc(Cl)cc4)S(=O)(=O)c4ccccc4)cc3)C2)cc1` (centres unmarked) [Example 4, N-(4-Chloro-benzyl)-N-[4-(3-p-tolyl-piperidine-1-carbonyl)-phenyl]-benzenesulfonamide]: the inhibition at 1 µM turned out to be 67%.

For `O=C(c1ccc(N(Cc2ccccc2)S(=O)(=O)c2ccc3ccccc3c2)cc1)N1CCN(c2ccccc2)CC1` [Example 13, Naphthalene-2-sulfonic acid benzyl-[4-(4-phenyl-piperazine-1-carbonyl)-phenyl]-amide], the inhibition at 1 µM was determined as 51%. With `Cn1cnc(S(=O)(=O)N(Cc2ccccc2)c2ccc(C(=O)N3CCN(c4nccs4)CC3)cc2)c1` [Example 77, 1-Methyl-1H-imidazole-4-sulfonic acid benzyl-[4-(4-thiazol-2-yl-piperazine-1-carbonyl)-phenyl]-amide], the inhibition at 1 µM was found to be 42%.

With `COc1cccc(CN(c2ccc(C(=O)N3CCN(c4ccccc4)CC3)cc2)S(=O)(=O)c2cn(C)cn2)c1` [Example 45, 1-Methyl-1H-imidazole-4-sulfonic acid (3-methoxy-benzyl)-[4-(4-phenyl-piperazine-1-carbonyl)-phenyl]-amide], the inhibition at 1 µM is 54%. On the same count and under the same terms, for `Cn1cnc(S(=O)(=O)N(Cc2ccc(F)c(Cl)c2)c2ccc(C(=O)N3CCCCC3)cc2)c1` [Example 97, 1-Methyl-1H-imidazole-4-sulfonic acid (3-chloro-4-fluoro-benzyl)-[4-(piperidine-1-carbonyl)-phenyl]-amide] the value was 61%; for `CN(C)S(=O)(=O)N(Cc1ccccc1)c1ccc(C(=O)N2CCOC(c3ccccc3)C2)cc1F` (centres unmarked) [Example 73, N-Benzyl-N-[2-fluoro-4-(2-phenyl-morpholine-4-carbonyl)-phenyl]-N′,N′-dimethylsulfamide], 67%. Turning to `CN1CCN(C(=O)c2ccc(N(Cc3ccccc3)S(=O)(=O)c3cn(C)cn3)cc2)CC1` [Example 7, 1-Methyl-1H-imidazole-4-sulfonic acid benzyl-[4-(4-methyl-piperazine-1-carbonyl)-phenyl]-amide], the inhibition at 1 µM came out at 38%. Consider `O=C(c1ccc(N(Cc2ccccc2)S(=O)(=O)c2ccccc2)cc1)N1CCCCC1` [Example 3, N-Benzyl-N-[4-(piperidine-1-carbonyl)-phenyl]-benzenesulfonamide], for which the inhibition at 1 µM came out at 94%. Regarding `Cn1cnc(S(=O)(=O)N(Cc2ccccc2)c2ccc(C(=O)N3CCCC(F)C3)cc2)c1` (centres unmarked) [Example 80, 1-Methyl-1H-imidazole-4-sulfonic acid benzyl-[4-(3-fluoro-piperidine-1-carbonyl)-phenyl]-amide], the inhibition at 1 µM came to 30%. On the same count and under the same terms, for `O=C(c1ccc(N(Cc2ccc(C(F)(F)F)cc2)S(=O)(=O)c2ccccc2)cc1)N1CCN(c2ccccc2)CC1` [Example 36, N-[4-(4-Phenyl-piperazine-1-carbonyl)-phenyl]-N-(4-trifluoromethyl-benzyl)-benzenesulfonamide] the value was 50%; for `N#Cc1ccc(CN(c2ccc(C(=O)N3CCN(c4ccccc4)CC3)cc2)S(=O)(=O)c2ccccc2)cc1` [Example 2, N-(4-Cyano-benzyl)-N-[4-(4-phenyl-piperazine-1-carbonyl)-phenyl]-benzenesulfonamide], 76%; for `Cn1cnc(S(=O)(=O)N(Cc2ccccc2)c2ccc(C(=O)N3CCC(F)(F)CC3)cc2)c1` [Example 79, 1-Methyl-1H-imidazole-4-sulfonic acid benzyl-[4-(4,4-difluoro-piperidine-1-carbonyl)-phenyl]-amide], 60%. Regarding `CC1CCCN(C(=O)c2ccc(N(Cc3ccccc3)S(=O)(=O)c3cn(C)cn3)cc2)C1` (centres unmarked) [Example 74, 1-Methyl-1H-imidazole-4-sulfonic acid benzyl-[4-(3-methyl-piperidine-1-carbonyl)-phenyl]-amide], the inhibition at 1 µM was determined as 51%. Compound `CC(C)c1noc(C2CCCN(C(=O)c3ccc(N(Cc4ccccc4)S(=O)(=O)N(C)C)cc3)C2)n1` (centres unmarked) [Example 69, N-Benzyl-N′N′-dimethyl-N-{4-[3-(3-isopropyl-[1,2,4]oxadiazol-5-yl)-piperidine-1-carbonyl]-phenyl}-sulfamide] yielded a hKv1.3 % inh. of 31%. Turning to `Cn1cnc(S(=O)(=O)N(Cc2ccccc2)c2ccc(C(=O)N3CCCC(C(F)(F)F)C3)cc2)c1` (centres unmarked) [Example 78, 1-Methyl-1H-imidazole-4-sulfonic acid benzyl-[4-(3-trifluoromethyl-piperidine-1-carbonyl)-phenyl]-amide], the inhibition at 1 µM stood at 74%.

For `O=C(c1ccc(N(Cc2ccccc2)S(=O)(=O)c2ccccc2)cc1)N1CCC(O)(c2ccccc2)CC1` [Example 58, N-Benzyl-N-[4-(4-hydroxy-4-phenyl-piperidine-1-carbonyl)-phenyl]benzenesulfonamide], the inhibition at 1 µM turned out to be 81%. Same read-out and setting: for `CC1CCCN(C(=O)c2ccc(N(Cc3ccc(Cl)cc3)S(=O)(=O)c3cn(C)cn3)cc2)C1` (centres unmarked) [Example 92, 1-Methyl-1H-imidazole-4-sulfonic acid (4-chloro-benzyl)-[4-(3-methyl-piperidine-1-carbonyl)-phenyl]-amide] the value was 61%. The compound `CN(C)S(=O)(=O)N(Cc1ccccc1)c1ccc(C(=O)N2CCC(O)(c3ccccc3)CC2)cc1` [Example 71, N-Benzyl-N′N′-dimethyl-N-[4-(4-hydroxy-4-phenyl-piperidine-1-carbonyl)-phenyl]-sulfamide] came in with a hKv1.3 % inh. of 27%. Consider `Cn1ccc(S(=O)(=O)N(Cc2ccccc2)c2ccc(C(=O)N3CCOC(c4ccccc4)C3)cc2)n1` (centres unmarked) [Example 84, 1-Methyl-1H-pyrazole-3-sulfonic acid benzyl-[4-(2-phenyl-morpholine-4-carbonyl)-phenyl]-amide], for which the inhibition at 1 µM was 89%. Turning to `Cn1nccc1S(=O)(=O)N(Cc1ccccc1)c1ccc(C(=O)N2CCNC(c3ccccc3)C2)cc1` (centres unmarked) [Example 89, 2-Methyl-2H-pyrazole-3-sulfonic acid benzyl-[4-(3-phenyl-piperazine-1-carbonyl)-phenyl]-amide], the inhibition at 1 µM is 61%. For the compound `CC1CN(C(=O)c2ccc(N(Cc3ccccc3)S(=O)(=O)c3ccccc3)cc2)CC(C)O1` (centres unmarked) [Example 56, N-Benzyl-N-[4-(2,6-dimethyl-morpholine-4-carbonyl)-phenyl]-benzenesulfonamide], the inhibition at 1 µM came to 42%.
